These results are taken from the SangsterLogP compilation.

The data set is described as follows: method code SF-HPLC, from DOI: 10.1016/j.ecoenv.2011.11.024. The note with it: pH 2.0.
For `Cc1ccccc1S`, the log distribution coefficient (logD) turned out to be 3.52. With `Fc1cc(F)c(F)c(S)c1F`, the logD is 1.76.

The molecule `Cc1cccc(S)c1` yielded a logD of 3.13.

In turn, `Cc1ccc(S)c(C)c1` gave a logD of 3.77. With `Fc1ccccc1S`, the pH-dependent lipophilicity (logD) came out at 1.9. `Sc1cccc(Cl)c1` yielded a pH-dependent lipophilicity (logD) of 2.47.

Consider `Fc1ccc(S)cc1`, for which the logD is 2.92. Consider `Cc1ccc(S)cc1`, for which the pH-dependent lipophilicity (logD) amounted to 3.27. In the case of `COc1ccc(S)cc1OC`, the logD turned out to be 3.32. Then `Sc1ccc(Cl)cc1`, with 2.66; and `Sc1cc(Cl)cc(Cl)c1`, with 2.43. Then `Sc1c(Cl)cccc1Cl`, with 2.35. The same measure for `Cc1ccc(S)cc1C`: 3.62. `Sc1cccc(Cl)c1Cl` showed a pH-dependent lipophilicity (logD) of 2.44. `Sc1ccccc1Br` showed a logD of 2.44. Turning to `COc1cccc(S)c1`, the pH-dependent lipophilicity (logD) amounted to 2.93. In turn, `Cc1cccc(C)c1S` displayed a logD of 4.02. As to `Sc1cccc(Br)c1`, the logD came to 2.48.

The molecule `Sc1cc(Cl)ccc1Cl` came in with a pH-dependent lipophilicity (logD) of 2.48. As to `Sc1ccc(Br)cc1`, the pH-dependent lipophilicity (logD) came out at 2.72. For the molecule `Fc1cccc(S)c1`, the log distribution coefficient (logD) amounted to 2.12. The molecule `Sc1ccc(Cl)cc1Cl` gave a pH-dependent lipophilicity (logD) of 2.49. `Cc1ccc(C)c(S)c1`: the log distribution coefficient (logD) amounted to 3.92.

`Sc1ccccc1Cl` yielded a logD of 2.27.

In general, logD refers to lipophilicity at a set pH, counting ionised and neutral species. Read a low logD as a more hydrophilic compound.
